Three compounds from patent US20090239875A1, “Protection of ferulic acid and/or tetramethylpyrazine against retinal ischaemia, glaucoma and siderosis oculi” (Committee on Chinese Medicine and Pharmacy, Department of …, priority 2008, published 2009) can be followed below.

Data set [1] deals with ChAT immunoreactivity (cholinergic amacrine cells) in the ischaemic retina. Kind of data set: ChAT immunofluorescence of the retina after ischaemia/reperfusion. As to conditions: 7 days reperfusion. The class given is in vivo, Wistar rat.
Procedure: On day 7 after retinal ischaemia pre-treated with vehicle or tested compounds, the Wistar rats were killed by an overdose of sodium pentobarbitone injected into the peritoneal cavity as mentioned earlier. Rat retinas were carefully and rapidly dissected from the eyecups with the aim of completely detaching the sensory retina from the RPEs. They were incubated in Mg^2+-free Locke's buffer containing: 154 mM NaCl, 5.6 mM KCl, 2.3 mM CaCl2, 3.6 mM NaHCO3, 5 mM N-[2-hydroxyethyl]piperazine-N′-[2-ethanesulfonic acid] (HEPES) and 5.6 mM D-glucose. The Locke's solution was briefly equilibrated before use with a gas mixture of 95% O2 and 5% CO2 at 37° C., pH 7.4. Retinal pieces were fixed for a further 45 minutes in 4% (w/v) paraformaldehyde in sodium phosphate buffer (0.2 M NaH2PO4.2H2O; 0.2M Na2HPO4; pH 7.4) and then transferred to 30% sucrose in sodium phosphate buffer for cryosectioning. Retinas were orientated and similarly mounted on a metal stand using O.C.T. compound (Merck Ltd) and then promptly frozen with dry ice. In this way, sections from similar areas were produced and thus the retinal sections (10 μm) had approximately the same eccentricity, which allowed direct comparison. […]
Data set [2] relates to hydroxyl radicals (.OH). Kind of data set: ROS assay in vivo (2,3-DHBA by vitreous microdialysis) in experimental siderosis.
Procedure: Iron toxicity and the formation of .OH were stimulated by an intravitreous application of FeSO4 with or without the presence of the test compounds FA and/or TMP. For the dose-response iron toxicity experiments, 24 mM (72 nmoles), 8 mM (24 nmoles) and 0.8 mM (2.4 nmoles) of FeSO4 were utilized. To test drug biochemical effects on the oxidative stress caused by the experimental siderosis, an intravitreous injection of FA (100 mM) was carried out 60 minutes before siderosis.
Trapping of hydroxyl radicals was accomplished by perfusing physiological saline containing 5 mM salicylic acid through a microdialysis probe (CMA/12, PC 14/01, CMA/Microdialysis, Stockholm, Sweden) inserted into the vitreous cavity of a rat eye after intra-vitreous implantation of either an iron or acrylate chip for the defined chronic model and its control. […] Salicylate was infused at the rate of 1.1 μl/min using a 1-ml Exmire microsyringe attached to a microdialysis pump (CMA-100, CMA/Microdialysis, Stockholm, Sweden). This was carried out every 15 or 20 minutes starting either 60 or 20 minutes before the implantation/injection and continued for 6 hours or 120 minutes following treatment, respectively. […] The hydroxyl radicals were quantified by using 8, 16, 24, 32 and 40 pmoles of 2,3-DHBA (which is photosensitive and can be dissolved in ethanol) as an internal standard.
Data set [3] concerns Thy-1 immunoreactivity (retinal ganglion cells) in the ischaemic retina. Kind of data set: Thy-1 immunofluorescence of the retina after ischaemia/reperfusion. It counts as in vivo, Wistar rat. As to conditions: 0.5 nmole i.v.i. pre-treatment; 7 days after I/R. The procedure: (§1) For electro-physiological, immuohistochemical, and molecular biological studies, drug administration was carried out with pre-administration (60 minutes before HIOP) of vehicle (saline for FA/TMP), FA (0.5 or 0.1 nmole), or TMP (0.5 nmole). The 60-minute HIOP procedure to induce ischaemic damage was carried out as defined. Intra-vitreous injection (i.v.i.) of 5 μl of each compound was given to the ‘ischaemic’ eye of each test rat using a 30-gauge needle attached to a 20 μl Hamilton syringe. As a control, the same volume of vehicle was intravitreously injected into the “ischaemic” eye of each control rat. In both cases, the fellow untreated eye acted as a normal control eye. In this case, FA, TMP, or vehicle was applied only to the eye (ipsilateral) which received ischaemia. Dose-response experiments for FA will also be performed.
On day 7 after retinal ischaemia pre-treated with vehicle or tested compounds, the Wistar rats were killed by an overdose of sodium pentobarbitone injected into the peritoneal cavity as mentioned earlier. Rat retinas were carefully and rapidly dissected from the eyecups with the aim of completely detaching the sensory retina from the RPEs. They were incubated in Mg^2+-free Locke's buffer containing: 154 mM NaCl, 5.6 mM KCl, 2.3 mM CaCl2, 3.6 mM NaHCO3, 5 mM N-[2-hydroxyethyl]piperazine-N′-[2-ethanesulfonic acid] (HEPES) and 5.6 mM D-glucose. […]

Data set [4] has as its system hydroxyl radicals (.OH). As to the kind of experiment: Salicylate trapping / vitreous microdialysis of hydroxyl radicals (2,3-DHBA) in HIOP-induced retinal ischaemia. The class given is in vivo, Wistar rat. The note with it: for Levels of 2,3-DHBA (.OH) in vitreous dialysate: at 60 minutes of HIOP-induced retinal ischaemia, n=4. The source says:
Rats were anesthetized and placed in a stereotaxic frame. This approach was adapted from Louzada-Junior et al with further modification. The microdilaysis tube was inserted into the vitreous cavity through the nonvascular pars plana of the sclera (0.5 mm from the corneal limbus) after it had been pre-punctured with a 25-gauge needle. This avoided the problem of bleeding into the vitreous cavity with consequent contamination of vitreous. With the microdialysis probe in position, the whole retina was subjected to HIOP-induced ischaemia for 120 minutes.
After an equilibration period of 45 min, a stable baseline was obtained. HIOP-induced retinal ischaemia was then performed. Samples were collected every 15 minutes starting 45 minutes before ischaemia and continuing for the subsequent 120-minute ischaemia. The microdialysates collected from the microdialysis probe were deposited into polyethylene vials (Microbiotech, Stockholm, Sweden) containing 15 μl of 0.1 M perchloric acid and were stored at −70° C. until analysis. The formation of .OH was quantified as the increase in 2,3-DHBA, which is the hydroxylative product of salicylic acid. Since 2,5-DHBA can also be produced via enzymatic pathways by virtue of P-450, 2,3-DHBA is considered to be a specific marker of .OH. Eluted microdialysates were directly injected into and 2,3-DHBA was analyzed by a high performance liquid chromatograph coupled with an electrochemical detector (HPLC-EC; Model LC-4C, Bioanalytical System Inc., West Lafayette, IN, USA).
The DHBA compound was oxidized using a glassy carbon working electrode (oxidation potential: +750 mV; model MF 1000, Bioanalytical System Inc., West Lafayette, IN, USA) and an Ag/AgCl reference electrode (model MW 2021, Bioanalytical System Inc., West Lafayette, IN, USA) with a special thin-layer gasket for the microbore LC-EC. In order to minimize dead volume, the column was connected directly between the micro-sampler and the working electrode. The mobile phase included 1-heptane sulfonic acid sodium salt (MW: 202.25) 3.15 g, EDTA 0.15 g, phosphoric acid 4.5 ml, triethylamine 5.25 ml, acetonitrile 255 ml, distilled water (added to 1.5 liters), pH 2.7. […] This is the first invention utilizing the defined modified microdialysis system for the measurement of .OH in the rat eye in vivo.
For electro-physiological, immuohistochemical, and molecular biological studies, drug administration was carried out with pre-administration (60 minutes before HIOP) of vehicle (saline for FA/TMP), FA (0.5 or 0.1 nmole), or TMP (0.5 nmole). The 60-minute HIOP procedure to induce ischaemic damage was carried out as defined. Intra-vitreous injection (i.v.i.) of 5 μl of each compound was given to the ‘ischaemic’ eye of each test rat using a 30-gauge needle attached to a 20 μl Hamilton syringe. […]

The subject of data set [5] is Thy-1 mRNA. Kind of data set: Semi-quantitative RT-PCR of Thy-1 mRNA in the retina after ischaemia/reperfusion. It counts as in vivo, Wistar rat. As to conditions: 7 days after I/R, sham operation 100.0000, n=4. The protocol: as §1
Levels of Thy-1 mRNAs present in the retinas were determined using a semi-quantitative RT-PCR technique. These were compared with the mRNA levels measured for the house-keeping gene β-actin as an internal standard (Nucci, C., et al. Invest Opthalmol V is Sci. 48(7):2997-3004, 2007). Seven days after sham operation alone or retinal ischaemia pre-treated with vehicle or defined chemicals, the rats were killed and the retinas removed and sonicated in TriReagent (as per manufacturer's instructions). Total retinal RNA was isolated and first strand cDNA synthesis was performed on 4 μg DNase-treated RNA (Nash, M. S., et al. Invest. Opthalmol. Vis. Sci. 40:1293-8, 1999). […]
The PCR reaction products were separated on 1.5% agarose gels using ethidium bromide for visualization. The relative abundance of each PCR product was determined by analyzing photographs of the gels by SigmaScan (Jandel Scientific, Corte Madera, Calif.). […]

Data set [6] has as its system rats subjected to 60 min retinal ischaemia plus reperfusion (I/R). Kind of data set: Flash ERG b-wave ratio after 60 min HIOP-induced retinal ischaemia plus reperfusion. The class given is in vivo, Wistar rat.
Source text: Six-week old Wistar rats (body weight: 250˜500 g) were anaesthetized with an intramuscular injection of ketamine and xylazine as described above and placed in a stereotaxic frame. The anterior chamber of one eye, with the other serving as control, was cannulated with a 30-gauge needle connected to a 0.9% saline reservoir; this caused an increase in IOP to 120 mmHg. A whitening of the iris and the fundus of the retina confirmed induction of an ischaemic insult (Block, F., et al. Gen Pharmacol. 30(3):281-7, 1997).
as §1

Data set [7] deals with ChAT immunoreactivity (cholinergic amacrine neurones) in the siderotic retina. As to the kind of experiment: ChAT immunofluorescence of the retina after experimental siderosis. It counts as in vivo, Wistar rat. The note with it: 0.5 nmole i.v.i. 60 minutes before siderosis; 25 nmole FeSO4 for 5 days.
Procedure: (§2) Iron toxicity and the formation of .OH were stimulated by an intravitreous application of FeSO4 with or without the presence of the test compounds FA and/or TMP. For the dose-response iron toxicity experiments, 24 mM (72 nmoles), 8 mM (24 nmoles) and 0.8 mM (2.4 nmoles) of FeSO4 were utilized. To test drug biochemical effects on the oxidative stress caused by the experimental siderosis, an intravitreous injection of FA (100 mM) was carried out 60 minutes before siderosis. In further electro-physiological and immuohistochemical studies, with or without pre-administration of 0.5 or 0.1 nmoles of FA/TMP, a medium amount of FeSO4 (25 nmole) was chosen to induce damage due to such as an oxidative stress so as not to reach the maximal pharmacological effect.
The time course of the experiments involved enucleation of the rat eyes and retrieval of the retinal pieces on day 1 (Western blot), day 5 (immunohistochemistry) and day 28 (histopathology) after experimental siderosis with/without each test compound.
For immunohistochemical analysis, rats were intracardially perfused first with 0.9% saline and then with 4% (w/v) paraformaldehyde. […] In order to observe the expression of ‘ROS-related enzymes’, retinal sections were incubated with primary antibody: rabbit polyclonal anti-rat manganese SOD (1:100; Upstate, NY) or rabbit anti-catalase (1:1000; Calbiochem, CA). […]
Data set [8] relates to rats given experimental siderosis. Kind of data set: Flash ERG in experimental siderosis (intravitreous FeSO4 or iron particle). As to conditions: for Effect on FeSO4 induced reduction in the b-wave amplitudes: 0.5 or 0.1 nmoles pre-administered, 25 nmole FeSO4, 3 and 5 days after siderosis, vs saline-treated animals.
Procedure: The animals were first dark adapted for at least 8 hours, anaesthetized as already described and the pupils dilated with 1% tropicamide and 2.5% phenylephrine. The animal was then placed in a stereotaxic frame and the body temperature maintained at 37° C. with an electrical blanket. A platinum wire loop was placed on the corneal surface to act as the recording electrode. A ground electrode was connected to the scruff of the back together with a reference electrode to the tongue of the animal. A strobe was placed 5 cm in front of the animal to provide a stimulus of 0.5 Hz. Fifteen consecutive responses were recorded at two-second intervals and at 10 kHz; the responses were amplified and averaged using an amplifier P511/regulated power supply RPS107/stimulator PS22 (Grass-Telefactor, Astro-Med. Inc., R1, USA). The a-wave amplitude was measured from the baseline to the trough of the a-wave and the b-wave amplitude was measured from the trough of the a-wave to the peak of the b-wave.
The Wistar rats were anesthetized with an intramuscular injection of ketamine (100 mg/kg) and xylazine (5 mg/kg), and placed in a stereotaxic frame. The chronic model of experimental siderosis was established as follows. Through a port punctured by a 20-gauge intravenous catheter (0.5 mm from the corneal limbus), an autoclaved defined iron particle was slowly and carefully implanted into the vitreous cavity of one eye of each experimental rat through the catheter sheath by the catheter inner shaft (a needle). The punctured wound was then sutured with sterilized 10-0 nylon to keep a close system. Similarly (0.5 mm from the corneal limbus) and guided by the 20-gauge intravenous catheter, an autoclaved acrylate chip was implanted into the vitreous cavity of one eye of each control rat.
Similarly, the acute model of experimental siderosis was set up utilizing various concentrations of iron sulfate with the control group being injected with saline. The animals were kept normothermic with a heated water jacket after anesthesia and were placed on an electrical blanket during recovery (both set at 37° C.).
as §2
The test system of data set [9] is glutamate release in the retina.
Procedure: Using the same microdialysis system as the ROS assay in vivo, each microdialysate was assayed for the presence of derivatized glutamate product by HPLC with a fluorescence detector (FL; model CMA/280, CMA/Microdialysis, Stockholm, Sweden). The derivatization reaction was carried out at room temperature. O-phthalaldehyde (OPA; 27 mg; Fisher Scientific, Loughborough, UK) was dissolved in 1 ml methanol, 9 ml 0.4 M potassium tetraborate (MW: 303.53; borate buffer: 1.5 g borate plus pure water adjusted to pH 9.5 with 6 M NaOH and then added with water to 100 ml) and 5 μl β-mercaptoethanol (Fisher Scientific, Loughborough, UK). The OPA stock reagent was covered in foil and stored at −20° C. for 1 month. The OPA working solution was prepared each day by diluting 1 ml of the OPA stock reagent with 3 ml of potassium tetraborate (0.4 M). […] For the HPLC separation, the detector output voltage (signal) was monitored using one data system (Scientific Information Service Corporation, Taiwan). […]
Before use, the mobile phase was filtered through a 0.22 μm filter (Millipore) using vacuum assistance. […] The detection sensitivity was 10 M. All standard samples and test samples were analyzed in duplicate.
The test system of data set [10] is cortical cells. As to conditions: 40 μM FeSO4 vs saline; n=5.
Procedure: The cortical cells to be tested were placed on a cover slip and loaded with calcium ion sensitive dye by incubation with a final concentration of 5 μM of the acetoxymethyl ester form of Fura-2 for 30 min at 37° C. in the 1 ml loading buffer. The cover slip was washed three times with buffer containing 150 mM NaCl, 5 mM KCl, 2.2 mM CaCl2, 1 mM MgCl2, 5 mM glucose, 10 mM HEPES, pH 7.4. A micropipette was pulled from a glass capillary by a micropipette puller (P-97, Sutter Instrument Co.) and the tip was polished in a microforge (o.d. 2 μm, MF-83, Narishige). The micropipette was backfilled with the test compound (40 μM FeSO4 or saline) using a fine tip syringe. The cover slip was mounted on an inverted microscope to measure single-cell fluorescence. The ejection mircropipette was positioned at a distance of 10 μm from a cell. A short pulse (0.5s) of the test compound was then applied to a single cell through the micropipette by a microinjection system (Picospritzer II, General Valve) with a pressure of 15 psi. The intracellular calcium concentration, [Ca^2+]i, was calculated using the ratio between the fluorescence at 340 nm and at 380 nm (F340/F380). Changes in the fluorescence ratio represent the changes in the [Ca^2+]i (Yang, D. M., et al. J Microsc 209: 223-227, 2003).
[11] abbreviates: 0.5 nmole i.v.i. 60 min before ischaemia.
Where [12] appears, read: 0.5 nmole i.v.i. 1 hour before ischaemia.
The mark [13] stands for this setting: 0.5 nmole i.v.i. 60 min before 60 min HIOP, 3 days after I/R.
[14] abbreviates: 0.5 nmole i.v.i. 60 min before 60 min HIOP, 5 days after I/R.
[15] abbreviates: 0.5 nmole i.v.i. 60 min before 60 min HIOP, 7 days after I/R.
Setting [16] is: FeSO4 injected five days earlier, particular example.

For `COc1cc(/C=C/C(=O)O)ccc1O` [FA, ferulic acid], the “Effect on I/R-induced changes in ChAT immunoreactivity” value is “only a partial counteracting effect” in [1] (0.1 nmole i.v.i. 60 min before ischaemia) and “obviously nullified” in [1] (setting [11]). Also, in data set [2] (100 μM, siderotic rats insulted by 8 mM FeSO4, vs saline), the “Effect on production of OH (2,3-DHBA) in siderosis” value was “significantly decreased”. For the same compound, in [2] (i.v.i. 60 minutes before siderosis, 8 mM FeSO4), the “Effect on formation of .OH (2,3-DHBA) in siderosis” value was “dose-dependently and significantly decreased”. In addition, the “Attenuation of ischaemia-induced reduction in thickness of Thy-1 immunolabeling” value in data set [3] was “around 15%”. Moreover, the Levels of 2,3-DHBA (.OH) in vitreous dialysate in data set [4] (0.1 nmole pre-treatment) stood at 3.48 pmol/15 µL perfusate; in data set [4] (0.5 nmole pre-treatment) it was 2.8574±0.7186 pmole/15 μl perfusate. Besides, in data set [4] (0.5 nmole pre-treatment, 60 minutes of ischaemia, vs vehicle-pre-treated ischaemic eyes), the “Attenuation of ischaemia-evoked increased 2,3-DHBA levels” value was “around 2 folds”. Also, the “Thy-1 mRNA/β-actin mRNA ratio” value in data set [5] (0.1 nmole i.v.i. 1 hour before ischaemia) is 65.8968±11.9579; in data set [5] (setting [12]), 85.1745±10.3177. For the same compound, the “ERG b-wave ratio (ischaemic eye vs contralateral normal eye)” value was 32.2402±6.3012 in [6] (0.1 nmole i.v.i. 60 min before 60 min HIOP, 3 days after I/R); 35.0948±4.6412 in data set [6] (0.1 nmole i.v.i. 60 min before 60 min HIOP, 5 days after I/R); 47.0775±5.5396 in data set [6] (0.1 nmole i.v.i. 60 min before 60 min HIOP, 7 days after I/R); 48.3576±3.1633 in data set [6] (setting [13]); 56.4287±6.9891 in [6] (setting [14]); 65.8600±6.0998 in [6] (setting [15]). Besides, in data set [7], the “Effect on iron-induced changes in ChAT immunoreactivity” value is recorded as “counteracted”. The “Effect on FeSO4 induced reduction in the b-wave amplitudes” value in data set [8] is “significantly alleviated”.

As for ferrous sulfate [FeSO4], the “Glutamate release in the retina” value in data set [9] (24 mM and/or 8 mM FeSO4, peaks 20 and 40 minutes after siderosis, vs saline) is “dose-dependent release of glutamate”. For the same compound, the “Glutamate concentration in vitreous dialysate” value in [9] (20 minutes after ferrous sulfate treatment (8 mM)) turned out to be 722 nM. Also, the “2,3-DHBA formed” value in data set [2] (20 minutes after injection of 8 mM FeSO4) is 91.23 pmol. Moreover, the “Change in [Ca^2+]i (fura-2 ratio F340/F380)” value in data set [10] is “significant increase”. In addition, the “ERG b-wave ratio after intravitreous FeSO4” value in data set [8] (8 mM FeSO4 (3 μl) intravitreous, at 2 hours) was “about 45%”. In data set [8] (setting [16]), the “ERG a-wave ratio of siderotic eye to normal fellow eye” value is 40.56% and the “ERG b-wave ratio of siderotic eye to normal fellow eye” value is given as 30.70%.

With `Cc1nc(C)c(C)nc1C` [TMP, tetramethylpyrazine], in [1] (setting [11]), the “Effect on I/R-induced changes in ChAT immunoreactivity” value is “not affected”. For the same compound, the “Levels of 2,3-DHBA (.OH) in vitreous dialysate” value in [4] (0.5 nmole pre-treatment) came to 4.6865±1.2661 pmole/15 μl perfusate. Besides, the “Thy-1 mRNA/β-actin mRNA ratio” value in data set [5] (setting [12]) is recorded as 46.5876±14.4476. Also, the figures for the “ERG b-wave ratio (ischaemic eye vs contralateral normal eye)” value in data set [6] (setting [13]), in [6] (setting [14]) and in data set [6] (setting [15]) were 17.9250±11.7135, 17.1500±6.8996 and 20.1750±8.5027, respectively. In addition, the “Effect on FeSO4 induced reduction in the b-wave amplitudes” value in data set [8] is “tended to alleviate”.
